In patent US20180296456A1, “Decapeptide-12 Modulation of Sirtuin Gene Expression in Epidermal Keratinocyte Progenitors” (Escape Therapeutics, Inc., priority 2017, published 2018):

Experiments:
SIRT1 = SIRT1 transcription, semi-quantitative RT-PCR in human epidermal progenitors; assay type: cell-based; details: 72 h
In short: (§1)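 Sirtuin mRNA levels are estimated semi-quantitatively as gel band intensity over 18S after 34 PCR cycles. Human neonatal epidermal progenitors in 60 μM calcium medium receive decapeptides (10–300 μM, 0.05 percent DMSO final) for 72 h at 37 °C.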

SIRT2 = SIRT2 transcription, semi-quantitative RT-PCR in human epidermal progenitors; assay type: cell-based; details: 72 h
In short: as §1

SIRT4 = SIRT4 transcription, semi-quantitative RT-PCR in human epidermal progenitors; assay type: cell-based; details: 72 h
SIRT5 = SIRT5 transcription, semi-quantitative RT-PCR in human epidermal progenitors; assay type: cell-based; details: 72 h
In short: as §1

SIRT6 = SIRT6 transcription, semi-quantitative RT-PCR in human epidermal progenitors; assay type: cell-based; details: 72 h
In short: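 Following a 72 hour treatment, cells were trypsinized and RNA isolated with an RNeasy kit. cDNA was made from 2 μg RNA using oligo dT and TaqMan reagents, then SIRT6 and 18S were amplified for 34 cycles. Products ran on 1.5 percent agarose gels with ethidium bromide; densitometry gave SIRT6/18S intensity ratios compared against vehicle-treated controls.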

SIRT7 = SIRT7 transcription, semi-quantitative RT-PCR in human epidermal progenitors; assay type: cell-based; details: 72 h
In short: as §1

in vitro = assay type: cell-based; details: human, human epidermal progenitors
In short: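 Epidermal progenitors were seeded at 2.5×10^4/well and kept at 37 °C in 5% CO2. Proliferation was measured by MTT.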

[1] = MTT cell proliferation assay, melanoblasts; assay type: cell-based, human; details: human, MTT, 72 h, read-out: melanoblast proliferation rate after 72 hours
Method: Proliferation rates for three human cell lines (epidermal progenitors, melanoblasts, and fibroblasts) were determined using a TACS® MTT Cell Proliferation Kit. Cells were seeded at 2.5×10^4/well in 96-well plates in a humidified atmosphere with 5 percent CO2 at 37 degrees Celsius. Twenty-four hours later, the decapeptides were added to the corresponding wells at varying concentrations and incubated for 72 hours. The remainder of the procedure was performed following the manufacturer's protocol.

[2] = Trypan blue cell viability, 7 days, fibroblasts; assay type: cell-based; details: human, relative to control, read-out: fibroblast viability after 7 days
Method: The effect of each of the decapeptides upon cell viability was also tested. In particular, cells were incubated with the decapeptide at various concentrations and then counted for viability relative to the control (untreated cells) using trypan blue. Cytotoxicity was measured according to the following formula:
[1−(# of cells in control−# of live cells in test sample)/# of cells in control]×100 percent.

For “Ac-YRSRKYSSWY-NH2 [P4C, Acetyl-YRSRKYSSWY-amide]”, the “SIRT1 transcription increase relative to control” value (SIRT1; 10 μM) was 7 ± 3%, the “SIRT1 transcription increase relative to control” value (SIRT1; 30 μM) was 5.00% and the “SIRT1 transcription increase relative to control” value (SIRT1; 50 μM) was 1.00%. For the same substance, the “SIRT1 transcription increase relative to control” value (SIRT1; 100 μM) was 137 ± 8%, the “SIRT1 transcription increase relative to control” value (SIRT1; 300 μM) was 190 ± 9% and the “SIRT2 transcription increase relative to control” value (SIRT2; 10 μM) was 5.00%. For the same substance, the “SIRT2 transcription increase relative to control” value (SIRT2; 30 μM) was 2 ± 1%, the “SIRT2 transcription increase relative to control” value (SIRT2; 50 μM) was 1.00% and the “SIRT2 transcription increase relative to control” value (SIRT2; 100 μM) was 42 ± 1%. The “SIRT2 transcription increase relative to control” value (SIRT2; 300 μM) was 31 ± 9%, the “SIRT4 transcription increase relative to control” value (SIRT4; 10 μM) was 3 ± 1% and the “SIRT4 transcription increase relative to control” value (SIRT4; 30 μM) was 3 ± 1%. The “SIRT4 transcription increase relative to control” value (SIRT4; 50 μM) was 11 ± 6%, the “SIRT4 transcription increase relative to control” value (SIRT4; 100 μM) was 32 ± 9% and the “SIRT4 transcription increase relative to control” value (SIRT4; 300 μM) was 67 ± 9%. For the same substance, the “SIRT5 transcription increase relative to control” value (SIRT5; 10 μM) was 4 ± 1%, the “SIRT5 transcription increase relative to control” value (SIRT5; 30 μM) was 2 ± 1% and the “SIRT5 transcription increase relative to control” value (SIRT5; 50 μM) was 3 ± 1%. For the same substance, the “SIRT5 transcription increase relative to control” value (SIRT5; 100 μM) was 35 ± 2%, the “SIRT5 transcription increase relative to control” value (SIRT5; 300 μM) was 28 ± 9% and the “SIRT6 transcription increase relative to control” value (SIRT6; 10 μM) was 12 ± 3%. For the same substance, the “SIRT6 transcription increase relative to control” value (SIRT6; 30 μM) was 9 ± 4%, the “SIRT6 transcription increase relative to control” value (SIRT6; 50 μM) was 31 ± 5% and the “SIRT6 transcription increase relative to control” value (SIRT6; 100 μM) was 124 ± 7%. For the same substance, the “SIRT6 transcription increase relative to control” value (SIRT6; 300 μM) was 87 ± 3%, the “SIRT7 transcription increase relative to control” value (SIRT7; 10 μM) was 14 ± 5% and the “SIRT7 transcription increase relative to control” value (SIRT7; 30 μM) was 7 ± 2%. The “SIRT7 transcription increase relative to control” value (SIRT7; 50 μM) was 46 ± 5%, the “SIRT7 transcription increase relative to control” value (SIRT7; 100 μM) was 80 ± 11% and the “SIRT7 transcription increase relative to control” value (SIRT7; 300 μM) was 130 ± 9%. The viability at 72 h, 3 µM (in vitro) was 99 ± 1%, the viability at 72 h, 10 µM (in vitro) was 99 ± 1% and the viability at 72 h, 30 µM (in vitro) was 98 ± 1%. The viability at 72 h, 50 µM (in vitro) was 98 ± 1%, the viability at 72 h, 100 µM (in vitro) was 97 ± 1% and the viability at 72 h, 300 µM (in vitro) was 97 ± 1%. The viability at 72 h, 500 µM (in vitro) was 96 ± 2%, the viability at 72 h, 1000 µM (in vitro) was 96 ± 2% and the viability at 72 h, 3 µM ([1]; 3 μM) was 100%. It also gave a viability at 72 h, 10 µM ([1]; 10 μM) of 100%, a viability at 72 h, 30 µM ([1]; 30 μM) of 99 ± 1% and a viability at 72 h, 50 µM ([1]; 50 μM) of 98 ± 1%. For the same substance, the viability at 72 h, 100 µM ([1]; 100 μM) was 97 ± 2%, the viability at 72 h, 300 µM ([1]; 300 μM) was 96 ± 3% and the viability at 72 h, 500 µM ([1]; 500 μM) was 95 ± 2%. For the same substance, the viability at 72 h, 1000 µM ([1]; 1000 μM) was 95 ± 2%, the viability at 168 h, 3 µM ([2]; 3 μM) was 100% and the viability at 168 h, 10 µM ([2]; 10 μM) was 98.9 ± 1%. It also gave a viability at 168 h, 30 µM ([2]; 30 μM) of 98.3 ± 1%, a viability at 168 h, 50 µM ([2]; 50 μM) of 97.8 ± 1% and a viability at 168 h, 100 µM ([2]; 100 μM) of 97.4 ± 2%. For the same substance, the viability at 168 h, 300 µM ([2]; 300 μM) was 96.5 ± 2%, the viability at 168 h, 500 µM ([2]; 500 μM) was 95.7 ± 2% and the viability at 168 h, 1000 µM ([2]; 1000 μM) was 94.9 ± 3%.
